# Tested on: Millipore #07-449, anti-H3K27me3
# Assay: Histone peptide microarray, Millipore 07-449
# Format: binding
# Settings: Millipore 07-449 (anti-H3K27me3) hits, average signal per peptide
# Method: (§1) Peptide microarrays were fabricated using an Aushon 2470 microarrayer and used as described ([Cornett et al., 2017]) with the following modifications. Protein and antibody hybridization steps were performed in buffer containing 25 mM HEPES pH 7.5, 100 mM NaCl, 0.5% BSA (w/v), and 0.1% NP-40. Slides were washed 3 × 5 min in PBS supplemented with 0.1% Tween-20 between each hybridization step. Antibodies used were primary anti-GST (Sigma #7781, 1:2,000 dilution) and an AlexaFluor 647-labeled secondary antibody (Life Technologies A-21245, 1:5,000 dilution). […] Full lists of peptides queried by array analysis are in Supplementary Table S2.
# 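Also: normalized to the highest peptide average per subarray.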
row,Substance,Avg Signal
1,Ac-AGGKAGKDSGKAKTKAVSR-Peg-Biot [H2A.Z.1(1-19)N-ac],0.007006
2,ARTKQTARKSTGGK(Me3)APRKQL-Peg-Biot [Peptide H3.1K14me3],0.01888
3,Ac-RRYQK(Ac)STELL-Peg-Biot [Peptide H3.1K56ac],0.004595
4,AGGK(Ac)AGK(Ac)DSGK(Ac)AKTKAVSR-Peg-Biot [H2A.Z.1K4acK7acK11ac],0.00926
5,ATKAACitKSAPATGGVKKPHRYRPGGG-K(Biotin)-OH [H3.1K27acK36me3],0.01344
6,Ac-SGRGK(Pro)GGK(Pro)GLGK(Pro)GGAKRHRKVLR-Peg-Biot [H4K5proK8proK12pro],0.02856
7,ARTKQTARKSTGGK(Me2)APRKQL-Peg-Biot [Peptide H3.1K14me2],0.003481
8,PEPAKSAPAPKKGSKK(Ac)AVTKAQKK-Peg-Biot [Peptide H2BK16ac],0.006632
9,PEPAKSAPAPKK(Ac)GSKKAVTKAQKK-Peg-Biot [Peptide H2BK12ac],0.004181
10,ATKAARK(Ac)SAPATGGVK(Me)KPHRYRPG-GK(Biotin)-OH [H3.1K27acK36me1],0.006337
11,IHQNLLPKKSAKATKASQ-Peg-Biot [yH2A(112-129)],0.0006752
12,ATKAARK(Ac)SAPATGGVK(Me2)KPHRYRPG-GK(Biotin)-OH [H3.1K27acK36me2],0.003089
13,Ac-APRKQLATKAARKpSAPSTGG-Peg-K(Biot)-NH2 [Peptide H3.3S28p],0.00807
14,AGGRAGRDSGRAKTKAVSR-Peg-Biot [H2A.Z.1K4RK7RK11R],0.008119
15,Ac-ARAKAKTRSSRAGLQF-Peg-Biotin [H2A(10-25)],0.005421
16,Ac-APRKQLATKAARR(Me2a)K(Me)SAPSTGG-Peg-Biot [H3.3R26me2aK27me1],0.002329
17,Biot-Peg-GKKATQASQEY-OH [H2A.X(132-142)],0.01738
18,Ac-SGRGK(Ac)GGKGLGKGGAK(Ac)RHRKVLR-Peg-Biot [Peptide H4K5acK16ac],0.0005008
19,Ac-SGRGK(Ac)GGK(Ac)GLGKGGAKRHRKVLR-Peg-Biot [Peptide H4K5acK8ac],0.02195
20,ARTKQTARKSpTGGKAPRKQL-Peg-Biot [Peptide H3.1T11p],0.0009523
21,ARTKQTARKSTGG-NleAPRKQL-Peg-Biot [Peptide H3.1K14-Nle],0.0002842
22,AGGKAGKDSGKAKTKAVSR-Peg-Biot [H2A.Z.1 unmod (1-19)],0.001328
23,IHQNLLPKK-pS-AKATKASQ-Peg-Biot [yH2AS121p],0.007624
24,Ac-APRK(Ac)QLATK(Ac)AARK(Ac)SAPSTGG-Peg-Biot [H3.3K18acK23acK27ac],0.005039
25,Ac-SGRGK(Ac)GGKGLGK(Ac)GGAK(Ac)RHRKVLR-Peg-Biot [H4K5acK12acK16ac],0.0005303

# Tested on: Abcam #ab8895, anti-H3K4me1
# Assay: Histone peptide microarray, Abcam ab8895
# Format: binding
# Settings: Abcam ab8895 (anti-H3K4me1) hits, average signal per peptide
# Method: as §1
row,Substance,Avg Signal
1,Ac-SGRGK(Ac)GGK(Ac)GLGK(Me)GGAK(Ac)RHRKVLR-Peg-Biot [H4K5acK8acK12me1K16ac],0.02773
2,Ac-AGGKAGKDSGKAKTKAVSR-Peg-Biot [H2A.Z.1(1-19)N-ac],0.002647
3,ARTKQTARKSTGGK(Me3)APRKQL-Peg-Biot [Peptide H3.1K14me3],0.148
4,AGGK(Ac)AGK(Ac)DSGK(Ac)AKTKAVSR-Peg-Biot [H2A.Z.1K4acK7acK11ac],0.0004754
5,ATKAACitKSAPATGGVKKPHRYRPGGG-K(Biotin)-OH [H3.1K27acK36me3],0.0002929
6,Ac-APRKQLATKAARK(Ac)SAPSTGG-Peg-Biot [Peptide H3.3K27ac],0.011
7,ARTKQTARKSTGGK(Me2)APRKQL-Peg-Biot [Peptide H3.1K14me2],0.15
8,PEPAKSAPAPKKGSKK(Ac)AVTKAQKK-Peg-Biot [Peptide H2BK16ac],0.001252
9,ARTKQTAR(Me2s)KSTGGKAPRKQL-Peg-Biot [Peptide H3.1R8me2s],0.05819
10,ATKAARK(Ac)SAPATGGVK(Me)KPHRYRPG-GK(Biotin)-OH [H3.1K27acK36me1],0.01424
11,IHQNLLPKKSAKATKASQ-Peg-Biot [yH2A(112-129)],0.01029
12,ATKAARK(Ac)SAPATGGVK(Me2)KPHRYRPG-GK(Biotin)-OH [H3.1K27acK36me2],0.002974
13,Ac-APRKQLATKAARKpSAPSTGG-Peg-K(Biot)-NH2 [Peptide H3.3S28p],0.002135
14,AGGRAGRDSGRAKTKAVSR-Peg-Biot [H2A.Z.1K4RK7RK11R],0.03173
15,Ac-APRKQLATKAARR(Me2a)K(Me)SAPSTGG-Peg-Biot [H3.3R26me2aK27me1],0.000609
16,Biot-Peg-GKKATQASQEY-OH [H2A.X(132-142)],0.00268
17,Ac-SGRGK(Ac)GGK(Ac)GLGKGGAKRHRKVLR-Peg-Biot [Peptide H4K5acK8ac],0.0004782
18,ARTKQTARKSpTGGKAPRKQL-Peg-Biot [Peptide H3.1T11p],0.1657
19,ARTKQTARKSTGG-NleAPRKQL-Peg-Biot [Peptide H3.1K14-Nle],0.09623
20,Ac-SGR(Me2a)GK(Ac)GGKGLGKGGAKRHRKVLR-K(Biot)-NH2 [Peptide H4R3me2aK5ac],0.006503

# Tested on: Active Motif #39161, anti-H3K9me3
# Assay: Histone peptide microarray, Active Motif 39161
# Format: binding
# Settings: Active Motif 39161 (anti-H3K9me3) hits
# Method: as §1
row,Substance,Avg Signal
1,Ac-SGRGK(Ac)GGK(Ac)GLGK(Me)GGAK(Ac)RHRKVLR-Peg-Biot [H4K5acK8acK12me1K16ac],0.0008155
2,AGGK(Ac)AGK(Ac)DSGK(Ac)AKTKAVSR-Peg-Biot [H2A.Z.1K4acK7acK11ac],0.0007875
3,ATKAACitKSAPATGGVKKPHRYRPGGG-K(Biotin)-OH [H3.1K27acK36me3],0.01207
4,Ac-APRKQLATKAARK(Ac)SAPSTGG-Peg-Biot [Peptide H3.3K27ac],0.002855
5,Ac-SGRGK(Pro)GGK(Pro)GLGK(Pro)GGAKRHRKVLR-Peg-Biot [H4K5proK8proK12pro],0.005323
6,ARTKQTARKSTGGK(Me2)APRKQL-Peg-Biot [Peptide H3.1K14me2],0.004075
7,PEPAKSAPAPKKGSKK(Ac)AVTKAQKK-Peg-Biot [Peptide H2BK16ac],0.01682
8,PEPAKSAPAPKK(Ac)GSKKAVTKAQKK-Peg-Biot [Peptide H2BK12ac],0.0009681
9,ARTKQTAR(Me2s)KSTGGKAPRKQL-Peg-Biot [Peptide H3.1R8me2s],0.0002677
10,ATKAARK(Ac)SAPATGGVK(Me)KPHRYRPG-GK(Biotin)-OH [H3.1K27acK36me1],0.01097
11,H3.1.1(15-34),0.01508
12,IHQNLLPKKSAKATKASQ-Peg-Biot [yH2A(112-129)],0.005669
13,ATKAARK(Ac)SAPATGGVK(Me2)KPHRYRPG-GK(Biotin)-OH [H3.1K27acK36me2],0.009849
14,Ac-APRKQLATKAARKpSAPSTGG-Peg-K(Biot)-NH2 [Peptide H3.3S28p],0.006366
15,AGGRAGRDSGRAKTKAVSR-Peg-Biot [H2A.Z.1K4RK7RK11R],0.02573
16,Ac-SGRGK(Ac)GGKGLGKGGAK(Ac)RHRKVLR-Peg-Biot [Peptide H4K5acK16ac],0.0002957
17,Ac-SGRGK(Ac)GGK(Ac)GLGKGGAK(Ac)RHRKVLR-Peg-Biot [H4K5acK8acK16ac],0.009927
18,ARTKQTARKSpTGGKAPRKQL-Peg-Biot [Peptide H3.1T11p],0.0006879
19,Ac-SGR(Me2a)GK(Ac)GGKGLGKGGAKRHRKVLR-K(Biot)-NH2 [Peptide H4R3me2aK5ac],0.0007875
20,IHQNLLPKK-pS-AKATKASQ-Peg-Biot [yH2AS121p],0.006042
21,Ac-APRK(Ac)QLATK(Ac)AARK(Ac)SAPSTGG-Peg-Biot [H3.3K18acK23acK27ac],0.0217

# Reference: publication PMC7160673, “A Degenerate Peptide Library Approach to Reveal Sequence Determinants of Methyllysine-Driven Protein Interactions” (Frontiers in Cell and Developmental Biology, 2020)
